Publication PMC6222329 (Molecules : A Journal of Synthetic Chemistry and Natural …, 2018)

How the values were obtained:
Type in all cases: biochemical
BChE (Equine) = molecular target: T1, BChE (Equine) (Equus caballus, UniProt P81908); experiment: biochemical
T1 construct: purchased Sigma-Aldrich (Steinheim, Germany)
Procedure: (§1) The assay was performed in two steps.
(§2) All enzymes were obtained from Sigma-Aldrich (Steinheim, Germany). Ellman’s reagent and the substrates were obtained from Fluka (Buchs, Switzerland). The chemicals used to prepare the buffer solution were purchased from Merck (Darmstadt, Germany).
(§3) The enzyme inhibitory activities of the synthesized compounds were investigated by applying Ellman’s method. Enzyme solutions were dissolved in gelatin solution (1%; 2.5 units/mL). […] Then, the reaction was initiated by the addition of Ellman’s reagent 5,5′-Dithiobis(2-nitrobenzoic acid) (DTNB; 20 µL/well, 10 mM) and the substrate (10 µL/well, 75 mM). […] The enzyme solution was processed as a control. All readings were adjusted with blank-reading. All assays were performed in four independent wells. […] Absorbance differences between the two readings were taken, and percentage inhibition rates were calculated according to the following formula: % Inhibition=[(A(C)−A(B))−(A(I)−A(B))]/(A(C)−A(B))×100.
(§4) • Blank (B): the well in which the inhibitor compound and substrate were not added; • Control (C): the well where the inhibitor compound was not added; • A(B): the difference in absorbance reading for the blank; • A(C): the difference in absorbance reading for the control; • A(I): the difference in absorbance reading for the inhibitor compounds.

AChE (Human) = molecular target: T2, AChE (Human) (Homo sapiens, UniProt P22303); experiment: AChE inhibition, Ellman's method
T2 construct: purchased Sigma-Aldrich (Steinheim, Germany)
T2 sequence (P22303 32-614): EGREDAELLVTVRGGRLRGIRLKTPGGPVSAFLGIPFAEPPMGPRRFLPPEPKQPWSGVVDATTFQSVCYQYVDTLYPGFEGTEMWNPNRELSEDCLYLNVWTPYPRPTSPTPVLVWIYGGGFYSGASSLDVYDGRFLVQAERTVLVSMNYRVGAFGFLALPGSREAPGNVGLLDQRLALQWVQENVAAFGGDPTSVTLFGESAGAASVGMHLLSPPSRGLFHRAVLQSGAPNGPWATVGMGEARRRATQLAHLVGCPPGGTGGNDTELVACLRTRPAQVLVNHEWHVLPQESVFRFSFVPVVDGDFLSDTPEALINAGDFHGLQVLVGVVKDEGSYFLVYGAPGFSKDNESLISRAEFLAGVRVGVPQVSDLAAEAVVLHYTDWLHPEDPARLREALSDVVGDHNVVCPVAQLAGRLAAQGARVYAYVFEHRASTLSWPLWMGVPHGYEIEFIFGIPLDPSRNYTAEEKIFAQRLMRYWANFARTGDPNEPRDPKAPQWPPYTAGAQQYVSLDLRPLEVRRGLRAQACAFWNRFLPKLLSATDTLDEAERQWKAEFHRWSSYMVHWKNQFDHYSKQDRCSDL
Procedure: as §1, §2, §3, §4

[1] = molecular target: T3, AChE (Electrophorus electricus) (Electrophorus electricus, UniProt O42275); experiment: AChE inhibition, Ellman's method
T3 construct: purchased Sigma-Aldrich (Steinheim, Germany)
T3 sequence (O42275 24-633): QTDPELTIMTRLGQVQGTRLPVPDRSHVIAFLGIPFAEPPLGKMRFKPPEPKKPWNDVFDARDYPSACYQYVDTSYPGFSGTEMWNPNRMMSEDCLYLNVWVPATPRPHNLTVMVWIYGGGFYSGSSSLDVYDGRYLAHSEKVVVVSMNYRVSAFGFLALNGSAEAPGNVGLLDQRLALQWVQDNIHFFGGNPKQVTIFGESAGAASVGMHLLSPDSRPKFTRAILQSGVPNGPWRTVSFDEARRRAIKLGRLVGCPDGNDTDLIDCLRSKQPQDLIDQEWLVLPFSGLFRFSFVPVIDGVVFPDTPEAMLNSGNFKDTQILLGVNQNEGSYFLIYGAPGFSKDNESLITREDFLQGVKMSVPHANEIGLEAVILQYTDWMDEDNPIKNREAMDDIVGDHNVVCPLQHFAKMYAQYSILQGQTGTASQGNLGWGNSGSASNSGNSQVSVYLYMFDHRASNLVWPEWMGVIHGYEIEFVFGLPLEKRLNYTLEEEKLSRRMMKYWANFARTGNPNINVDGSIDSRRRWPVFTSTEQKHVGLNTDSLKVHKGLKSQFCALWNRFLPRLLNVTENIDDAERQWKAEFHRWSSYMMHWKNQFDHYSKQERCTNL
Procedure: as §1, §2, §3, §4

BChE (Human) = molecular target: T4, BChE (Human) (Homo sapiens, UniProt P06276); experiment: BChE inhibition, Ellman's method
T4 construct: purchased Sigma-Aldrich (Steinheim, Germany)
T4 sequence (P06276 29-602): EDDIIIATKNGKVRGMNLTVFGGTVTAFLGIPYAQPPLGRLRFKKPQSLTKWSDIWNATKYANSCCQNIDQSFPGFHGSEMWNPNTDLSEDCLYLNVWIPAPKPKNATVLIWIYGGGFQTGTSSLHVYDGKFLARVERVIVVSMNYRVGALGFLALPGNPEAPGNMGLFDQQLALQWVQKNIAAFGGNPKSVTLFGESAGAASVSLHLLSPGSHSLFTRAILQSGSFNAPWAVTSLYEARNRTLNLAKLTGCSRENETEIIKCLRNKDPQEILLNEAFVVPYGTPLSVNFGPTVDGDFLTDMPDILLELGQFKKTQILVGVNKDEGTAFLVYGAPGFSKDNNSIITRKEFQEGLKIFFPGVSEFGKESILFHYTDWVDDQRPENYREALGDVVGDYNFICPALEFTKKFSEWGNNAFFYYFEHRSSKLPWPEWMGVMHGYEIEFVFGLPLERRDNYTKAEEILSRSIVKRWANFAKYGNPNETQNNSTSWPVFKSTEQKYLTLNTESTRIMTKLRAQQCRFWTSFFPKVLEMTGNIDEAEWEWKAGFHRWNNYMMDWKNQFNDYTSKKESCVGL
Procedure: as §1, §2, §3, §4

[2] = read-out: AChE (Human) inhibitory activity (%) ± SD
[3] = read-out: AChE (Electrophorus electricus) inhibitory activity (%) ± SD
[4] = read-out: BChE (Human) inhibitory activity (%) ± SD

T1 sequence (P81908 whole entry): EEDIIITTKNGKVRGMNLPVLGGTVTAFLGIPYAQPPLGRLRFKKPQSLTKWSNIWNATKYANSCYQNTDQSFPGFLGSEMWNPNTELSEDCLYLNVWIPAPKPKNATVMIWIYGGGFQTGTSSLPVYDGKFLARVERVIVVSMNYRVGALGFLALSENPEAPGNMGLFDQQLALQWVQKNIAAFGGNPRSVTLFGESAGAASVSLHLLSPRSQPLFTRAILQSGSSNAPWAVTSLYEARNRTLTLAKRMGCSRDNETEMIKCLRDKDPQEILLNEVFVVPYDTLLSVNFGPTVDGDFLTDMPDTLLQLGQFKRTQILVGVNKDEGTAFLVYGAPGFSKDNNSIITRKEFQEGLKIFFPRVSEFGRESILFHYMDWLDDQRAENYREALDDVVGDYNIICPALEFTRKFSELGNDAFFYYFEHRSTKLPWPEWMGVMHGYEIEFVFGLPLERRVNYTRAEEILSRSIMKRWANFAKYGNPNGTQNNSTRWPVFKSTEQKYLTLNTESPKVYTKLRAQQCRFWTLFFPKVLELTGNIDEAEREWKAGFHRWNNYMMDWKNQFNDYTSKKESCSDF

Nc1c2ccccc2nc2ccccc12 [Aminoacridine, 9-aminoacridine, reference compound]
IC50 (BChE (Equine)): 233 ± 9 nM
inhibition at 1000 µM (BChE (Equine); 10^-3 M, read-out: BChE (Equine) inhibitory activity (%) ± SD): 91.2 ± 1.2%
inhibition at 100 µM (BChE (Equine); 10^-4 M, read-out: BChE (Equine) inhibitory activity (%) ± SD): 87.3 ± 1.07%
inhibition at 10 µM (BChE (Equine); 10^-5 M, read-out: BChE (Equine) inhibitory activity (%) ± SD): 71.5 ± 1.02%
inhibition at 1 µM (BChE (Equine); 10^-6 M, read-out: BChE (Equine) inhibitory activity (%) ± SD): 56.3 ± 0.97%
inhibition at 0.1 µM (BChE (Equine); 10^-7 M, read-out: BChE (Equine) inhibitory activity (%) ± SD): 42.8 ± 0.63%
inhibition at 0.01 µM (BChE (Equine); 10^-8 M, read-out: BChE (Equine) inhibitory activity (%) ± SD): 30.1 ± 0.48%
inhibition at 0.001 µM (BChE (Equine); 10^-9 M, read-out: BChE (Equine) inhibitory activity (%) ± SD): 24.9 ± 0.5%
inhibition at 0.001 µM (AChE (Human); [2]): 16.7 ± 0.37%
inhibition at 0.01 µM (AChE (Human); [2]): 21.6 ± 0.42%
inhibition at 0.1 µM (AChE (Human); [2]): 35.8 ± 0.67%
inhibition at 1 µM (AChE (Human); [2]): 44.3 ± 0.74%
inhibition at 10 µM (AChE (Human); [2]): 55.3 ± 0.82%
inhibition at 100 µM (AChE (Human); [2]): 78.2 ± 0.89%
inhibition at 1000 µM (AChE (Human); [2]): 87.2 ± 0.97%
inhibition at 0.001 µM [1, 3]: 16 ± 0.48%
inhibition at 0.01 µM [1, 3]: 20.4 ± 0.55%
inhibition at 0.1 µM [1, 3]: 31.6 ± 0.82%
inhibition at 1 µM [1, 3]: 41.7 ± 0.97%
inhibition at 10 µM [1, 3]: 59 ± 1.05%
inhibition at 100 µM [1, 3]: 75.2 ± 1.15%
inhibition at 1000 µM [1, 3]: 85.2 ± 1.08%
IC50 (BChE (Human)): 221 ± 7 nM
inhibition at 0.001 µM (BChE (Human); [4]): 22.7 ± 0.48%
inhibition at 0.01 µM (BChE (Human); [4]): 31.9 ± 0.62%
inhibition at 0.1 µM (BChE (Human); [4]): 46.8 ± 0.7%
inhibition at 1 µM (BChE (Human); [4]): 53.3 ± 0.99%
inhibition at 10 µM (BChE (Human); [4]): 74.3 ± 1.08%
inhibition at 100 µM (BChE (Human); [4]): 86.1 ± 1.22%
inhibition at 1000 µM (BChE (Human); [4]): 90.4 ± 1.04%

CCN1CCN(C(=S)SCC(=O)Nc2c3ccccc3nc3ccccc23)CC1 [Compound 4c, 2-(9-Acridinylamino)-2-oxoethyl 4-ethylpiperazine-1-carbodithioate]
BChE (Equine) inhibitory activity (%) ± SD (BChE (Equine); 10^-3 M): 45.18±0.94%
BChE (Equine) inhibitory activity (%) ± SD (BChE (Equine); 10^-4 M): 22.70 ± 0.70%
AChE (Human) inhibitory activity (%) ± SD (AChE (Human); 10^-3 M): 51.25±1.45%
AChE (Human) inhibitory activity (%) ± SD (AChE (Human); 10^-4 M): 10.28 ± 0.22%
AChE (Electrophorus electricus) inhibitory activity (%) ± SD ([1]; 10^-3 M): 50.73±2.21%
AChE (Electrophorus electricus) inhibitory activity (%) ± SD ([1]; 10^-4 M): 5.11 ± 0.09%
BChE (Human) inhibitory activity (%) ± SD (BChE (Human); 10^-3 M): 50.23±0.88%
BChE (Human) inhibitory activity (%) ± SD (BChE (Human); 10^-4 M): 20.55 ± 0.61%

O=C(CSC(=S)N1CCN(c2ccc([N+](=O)[O-])cc2)CC1)Nc1c2ccccc2nc2ccccc12 [Compound 4d, 2-(9-Acridinylamino)-2-oxoethyl 4-(4-nitrophenyl)piperazine-1-carbodithioate]
BChE (Equine) inhibitory activity (%) ± SD (BChE (Equine); 10^-3 M): 77.75±1.79%
BChE (Equine) inhibitory activity (%) ± SD (BChE (Equine); 10^-4 M): 40.19 ± 0.49%
AChE (Human) inhibitory activity (%) ± SD (AChE (Human); 10^-3 M): 50.46±1.09%
AChE (Human) inhibitory activity (%) ± SD (AChE (Human); 10^-4 M): 34.71 ± 0.77%
AChE (Electrophorus electricus) inhibitory activity (%) ± SD ([1]; 10^-3 M): 55.62±1.14%
AChE (Electrophorus electricus) inhibitory activity (%) ± SD ([1]; 10^-4 M): 31.64 ± 0.45%
BChE (Human) inhibitory activity (%) ± SD (BChE (Human); 10^-3 M): 80.56±1.51%
BChE (Human) inhibitory activity (%) ± SD (BChE (Human); 10^-4 M): 45.26 ± 0.60%

O=C(CSC(=S)N1CCN(c2ccccc2)CC1)Nc1c2ccccc2nc2ccccc12 [Compound 4f, 2-(9-Acridinylamino)-2-oxoethyl 4-phenylpiperazine-1-carbodithioate]
BChE (Equine) inhibitory activity (%) ± SD (BChE (Equine); 10^-3 M): 77.60±1.60%
BChE (Equine) inhibitory activity (%) ± SD (BChE (Equine); 10^-4 M): 12.80 ± 0.87%
AChE (Human) inhibitory activity (%) ± SD (AChE (Human); 10^-3 M): 74.28±1.04%
AChE (Human) inhibitory activity (%) ± SD (AChE (Human); 10^-4 M): 8.71 ± 0.62%
AChE (Electrophorus electricus) inhibitory activity (%) ± SD ([1]; 10^-3 M): 77.65±2.42%
AChE (Electrophorus electricus) inhibitory activity (%) ± SD ([1]; 10^-4 M): 4.70 ± 0.27%
BChE (Human) inhibitory activity (%) ± SD (BChE (Human); 10^-3 M): 75.23±1.25%
BChE (Human) inhibitory activity (%) ± SD (BChE (Human); 10^-4 M): 15.67 ± 0.79%

CN1CCN(C(=S)SCC(=O)Nc2c3ccccc3nc3ccccc23)CC1 [Compound 4g, 2-(9-Acridinylamino)-2-oxoethyl 4-methylpiperazine-1-carbodithioate]
BChE (Equine) inhibitory activity (%) ± SD (BChE (Equine); 10^-3 M): 78.11±2.24%
BChE (Equine) inhibitory activity (%) ± SD (BChE (Equine); 10^-4 M): 33.65 ± 0.89%
AChE (Human) inhibitory activity (%) ± SD (AChE (Human); 10^-3 M): 30.85±0.65%
AChE (Human) inhibitory activity (%) ± SD (AChE (Human); 10^-4 M): 11.30 ± 0.58%
AChE (Electrophorus electricus) inhibitory activity (%) ± SD ([1]; 10^-3 M): 26.90±0.83%
AChE (Electrophorus electricus) inhibitory activity (%) ± SD ([1]; 10^-4 M): 10.44 ± 0.66%
BChE (Human) inhibitory activity (%) ± SD (BChE (Human); 10^-3 M): 80.29±2.40%
BChE (Human) inhibitory activity (%) ± SD (BChE (Human); 10^-4 M): 35.97 ± 0.80%

COc1ccc(N2CCN(C(=S)SCC(=O)Nc3c4ccccc4nc4ccccc34)CC2)cc1 [Compound 4h, 2-(9-Acridinylamino)-2-oxoethyl 4-(4-methoxyphenyl)piperazine-1-carbodithioate]
BChE (Equine) inhibitory activity (%) ± SD (BChE (Equine); 10^-3 M): 84.02±2.35%
BChE (Equine) inhibitory activity (%) ± SD (BChE (Equine); 10^-4 M): 12.64 ± 0.46%
AChE (Human) inhibitory activity (%) ± SD (AChE (Human); 10^-3 M): 35.77±1.62%
AChE (Human) inhibitory activity (%) ± SD (AChE (Human); 10^-4 M): 18.39 ± 0.57%
AChE (Electrophorus electricus) inhibitory activity (%) ± SD ([1]; 10^-3 M): 30.87±1.01%
AChE (Electrophorus electricus) inhibitory activity (%) ± SD ([1]; 10^-4 M): 15.23 ± 0.69%
BChE (Human) inhibitory activity (%) ± SD (BChE (Human); 10^-3 M): 80.88±2.05%
BChE (Human) inhibitory activity (%) ± SD (BChE (Human); 10^-4 M): 15.58 ± 0.67%
